According to patent publication US8188101B2 (AstraZeneca AB, priority 2008, dated 2012):

What follows are molecules tested on Aβ42 release (assay: Aβ release in cells stably expressing APPswe, Meso Scale Discovery electrochemiluminescence assay). Conditions: Homo sapiens, SH-SY5Y, HEK or SH-SY5Y cells stably expressing APPswe, 4-6 hours incubation with test compound.
Format: cell-based, Human
Protocol: The level of activity of the compounds on Aβ release was tested using the following method:
Compounds were diluted in 100% DMSO and stored at […] prior to use. Human Embryonic Kidney (HEK) or Human Neuroblastoma (SH-SY5Y) cell lines stably expressing APP with the Swedish mutation (APPswe) were cultured using Dulbecco's Modified Eagles medium (DMEM) supplied with […] glucose, Na-pyruvate and GlutaMAX with 10% FBS, 100 U/ml penicillin-streptomycin (PEST) respectively, 1× non-essential amino acids (NEAA), […] Hepes, 100 μg/ml Zeocine. Cells at about 80% confluence were washed with PBS, detached from culture flasks using 1× Trypsin/EDTA diluted in PBS, re-suspended in cell media and plated in 384-well poly-d-lysine coated cell culture plates at about 10000-15000 cells/well, in 25 μL cell media. Optionally, cryo-preserved cells (frozen and stored at −140° C. in 90% cell media and 10% DMSO) were thawed, washed and plated as above. Next the cells were incubated for 15-24 h at 37° C. and 5% CO2, after which cell medium was changed. Fresh medium containing test compound diluted ×200 from prepared compound plate was added to the cells before further incubation for 4-6 hours at 37° C. and 5% CO2. After incubation with test compound the amount of Aβ peptides, including Aβ42, Aβ40, Aβ39, Aβ38 and Aβ37, secreted to the cell medium was analyzed using the electrochemiluminescence assay technology from Meso Scale Discovery Technology, in combination with specific antibodies raised against the different Aβ peptides. Potential cytotoxic effects of the compounds were usually assayed by measuring the ATP content (ViaLight) from cell lysate.

SMILES	IC50 [nM]
OCCN1CCc2nc(Nc3ccc(-c4cnco4)cc3)nc(NCC3CCOCC3)c2C1 [Example 86, 2-(2-(4-(Oxazol-5-yl)phenylamino)-4-((tetrahydro-2H-pyran-4-yl)methylamino)-7,8-dihydropyrido[4,3-d]pyrimidin-6(5H)-yl)ethanol]	501
COC(c1ccccc1)c1nc(Nc2ccc(-n3ccnc3C)cc2)nc2c1CS(=O)(=O)CC2 (stereo not shown) [Example 66, 4-[Methoxy(phenyl)methyl]-N-[4-(2-methyl-1H-imidazol-1-yl)phenyl]-7,8-dihydro-5H-thiopyrano[4,3-d]pyrimidin-2-amine 6,6-dioxide]	1260
CC(=O)N1CCc2nc(Nc3ccc(-c4cnco4)cc3)nc(N(C)Cc3ccccn3)c2C1 [Example 92, 1-(4-(Methyl(pyridin-2-ylmethyl)amino)-2-(4-(oxazol-5-yl)phenylamino)-7,8-dihydropyrido[4,3-d]pyrimidin-6(5H)-yl)ethanone]	5010
COc1cc(Nc2nc3c(c(Cc4ccccc4)n2)CNCC3)ccc1-n1cnc(C)c1 [Example 106, 4-Benzyl-N-(3-methoxy-4-(4-methyl-1H-imidazol-1-yl)phenyl)-5,6,7,8-tetrahydropyrido[4,3-d]pyrimidin-2-amine]	63.1
CN1CCc2nc(Nc3ccc(-c4cnco4)cc3)nc(N(CCO)c3ccccc3)c2C1 [Example 2, 2-((6-Methyl-2-(4-(oxazol-5-yl)phenylamino)-5,6,7,8-tetrahydropyrido[4,3-d]pyrimidin-4-yl)(phenyl)amino)ethanol]	398
COC(c1ccccc1)c1nc(Nc2ccc(-n3ccnc3C)cc2)nc2c1COCC2 (stereo not shown) [Example 65, 4-(Methoxy(phenyl)methyl)-N-(4-(2-methyl-1H-imidazol-1-yl)phenyl)-7,8-dihydro-5H-pyrano[4,3-d]pyrimidin-2-amine]	316
Cc1nccn1-c1ccc(Nc2nc3c(c(CC4CCOCC4)n2)COCC3)cc1 [Example 67, N-(4-(2-Methyl-1H-imidazol-1-yl)phenyl)-4-((tetrahydro-2H-pyran-4-yl)methyl)-7,8-dihydro-5H-pyrano[4,3-d]pyrimidin-2-amine]	10000
CC(=O)N1CCc2nc(Nc3ccc(-c4cnco4)cc3)nc(N(CCC#N)C3CC3)c2C1 [Example 31, 3-((6-Acetyl-2-(4-(oxazol-5-yl)phenylamino)-5,6,7,8-tetrahydropyrido[4,3-d]pyrimidin-4-yl)(cyclopropyl)amino)propanenitrile]	794
C[C@H](O)C(=O)N1CCc2nc(Nc3ccc(-c4cnco4)cc3)nc(N(CCO)c3ccccc3)c2C1 [Example 20, (S)-2-Hydroxy-1-(4-((2-hydroxyethyl)(phenyl)amino)-2-(4-(oxazol-5-yl)phenylamino)-7,8-dihydropyrido[4,3-d]pyrimidin-6(5H)-yl)propan-1-one]	1000
Cc1nccn1-c1ccc(Nc2nc3c(c(Cc4ccccc4)n2)CN(C)CC3)cc1 [Example 42, 4-Benzyl-6-methyl-N-(4-(2-methyl-1H-imidazol-1-yl)phenyl)-5,6,7,8-tetrahydropyrido[4,3-d]pyrimidin-2-amine]	398
COCC(=O)N1CCc2nc(Nc3ccc(-c4cnco4)cc3)nc(N(CCO)c3ccccc3)c2C1 [Example 18, 1-(4-((2-Hydroxyethyl)(phenyl)amino)-2-(4-(oxazol-5-yl)phenylamino)-7,8-dihydropyrido[4,3-d]pyrimidin-6(5H)-yl)-2-methoxyethanone]	2510
OCCN1CCc2nc(Nc3ccc(-c4cnco4)cc3)nc(NC[C@H]3CCCO3)c2C1 [Example 80, (R)-2-(2-(4-(Oxazol-5-yl)phenylamino)-4-((tetrahydrofuran-2-yl)methylamino)-7,8-dihydropyrido[4,3-d]pyrimidin-6(5H)-yl)ethanol]	158
CC(=O)N1CCc2nc(Nc3ccc(-n4ccnc4C)cc3)nc(Cc3ccc(C)cc3)c2C1 [Example 59, 1-(2-(4-(2-Methyl-1H-imidazol-1-yl)phenylamino)-4-(4-methylbenzyl)-7,8-dihydropyrido[4,3-d]pyrimidin-6(5H)-yl)ethanone]	398
COc1cc(Nc2nc(CCC3CCCO3)c3c(n2)CCN(C)C3)ccc1-n1cnc(C)c1 (stereo not shown) [Example 112, N-(3-Methoxy-4-(4-methyl-1H-imidazol-1-yl)phenyl)-6-methyl-4-(2-(tetrahydrofuran-2-yl)ethyl)-5,6,7,8-tetrahydropyrido[4,3-d]pyrimidin-2-amine]	126
Cc1nccn1-c1ccc(Nc2nc3c(c(NC[C@H]4CCCO4)n2)CN(C)CC3)cc1 [Example 74, (R)-6-Methyl-N2-(4-(2-methyl-1H-imidazol-1-yl)phenyl)-N4-((tetrahydrofuran-2-yl)methyl)-5,6,7,8-tetrahydropyrido[4,3-d]pyrimidine-2,4-diamine]	1000
CS(=O)(=O)N1CCc2nc(Nc3ccc(-c4cnco4)cc3)nc(N(CCO)c3ccccc3)c2C1 [Example 21, 2-((6-(Methylsulfonyl)-2-(4-(oxazol-5-yl)phenylamino)-5,6,7,8-tetrahydropyrido[4,3-d]pyrimidin-4-yl)(phenyl)amino)ethanol]	1260
Cc1nccn1-c1ccc(Nc2nc(CCC3CCCCC3)c3c(n2)CCN(C)C3)cc1 [Example 54, 4-(2-Cyclohexylethyl)-6-methyl-N-(4-(2-methyl-1H-imidazol-1-yl)phenyl)-5,6,7,8-tetrahydropyrido[4,3-d]pyrimidin-2-amine]	316
COc1cc(Nc2nc3c(c(Cc4ccc(F)cc4)n2)C[S+]([O-])CC3)ccc1-n1cnc(C)c1 (stereo not shown) [Example 44, 4-(4-Fluorobenzyl)-N-[3-methoxy-4-(4-methyl-1H-imidazol-1-yl)phenyl]-7,8-dihydro-5H-thiopyrano[4,3-d]pyrimidin-2-amine 6-oxide]	79.4
COc1cc(Nc2nc3c(c(C(OC)c4ccccc4)n2)COCC3)ccc1-n1cnc(C)c1 (stereo not shown) [Example 101, 4-(Methoxy(phenyl)methyl)-N-(3-methoxy-4-(4-methyl-1H-imidazol-1-yl)phenyl)-7,8-dihydro-5H-pyrano[4,3-d]pyrimidin-2-amine]	50.1

More lines, in order of falling IC50, values ahead:

IC50 [nM]	SMILES
6310	CC(=O)N1CCc2nc(Nc3ccc(-c4cnco4)cc3)nc(N3CCCC(CO)C3)c2C1 (stereo not shown) [Example 93, 1-(4-(3-(Hydroxymethyl)piperidin-1-yl)-2-(4-(oxazol-5-yl)phenylamino)-7,8-dihydropyrido[4,3-d]pyrimidin-6(5H)-yl)ethanone]
794	CN(C)C(=O)N1CCc2nc(Nc3ccc(-c4cnco4)cc3)nc(N(CCO)c3ccccc3)c2C1 [Example 25, 4-((2-Hydroxyethyl)(phenyl)amino)-N,N-dimethyl-2-(4-(oxazol-5-yl)phenylamino)-7,8-dihydropyrido[4,3-d]pyrimidine-6(5H)-carboxamide]
631	CCN(CC1CCCO1)c1nc(Nc2ccc(-n3ccnc3C)cc2)nc2c1CN(CCO)CC2 (stereo not shown) [Example 77, 2-(4-(Ethyl((tetrahydrofuran-2-yl)methyl)amino)-2-(4-(2-methyl-1H-imidazol-1-yl)phenylamino)-7,8-dihydropyrido[4,3-d]pyrimidin-6(5H)-yl)ethanol]
631	COc1cccc(Cc2nc(Nc3ccc(-n4ccnc4C)cc3)nc3c2CN(C(C)=O)CC3)c1 [Example 97, 1-(4-(3-Methoxybenzyl)-2-(4-(2-methyl-1H-imidazol-1-yl)phenylamino)-7,8-dihydropyrido[4,3-d]pyrimidin-6(5H)-yl)ethanone]
501	Cc1nccn1-c1ccc(Nc2nc3c(c(N(CCO)Cc4ccccc4)n2)CN(C)CC3)cc1 [Example 76, 2-(Benzyl(6-methyl-2-(4-(2-methyl-1H-imidazol-1-yl)phenylamino)-5,6,7,8-tetrahydropyrido[4,3-d]pyrimidin-4-yl)amino)ethanol]
316	CC(=O)N1CCc2nc(Nc3ccc(-c4cnco4)cc3)nc(NC[C@@H]3CCCO3)c2C1 [Example 27, (S)-1-(2-(4-(Oxazol-5-yl)phenylamino)-4-((tetrahydrofuran-2-yl)methylamino)-7,8-dihydropyrido[4,3-d]pyrimidin-6(5H)-yl)ethanone]
251	COc1cc(Nc2nc(CCC3CCCO3)c3c(n2)CCN(C(C)=O)C3)ccc1-n1cnc(C)c1 (stereo not shown) [Example 111, 1-(2-(3-Methoxy-4-(4-methyl-1H-imidazol-1-yl)phenylamino)-4-(2-(tetrahydrofuran-2-yl)ethyl)-7,8-dihydropyrido[4,3-d]pyrimidin-6(5H)-yl)ethanone]
200	CC(=O)N1CCc2nc(Nc3ccc(-n4ccnc4C)cc3)nc(CCC3CCCCC3)c2C1 [Example 58, 1-(4-(2-Cyclohexylethyl)-2-(4-(2-methyl-1H-imidazol-1-yl)phenylamino)-7,8-dihydropyrido[4,3-d]pyrimidin-6(5H)-yl)ethanone]
158	CCCN1CCc2nc(Nc3ccc(-c4cnn(C)c4)cc3)nc(N(CCO)c3ccccc3)c2C1 [Example 39, 2-((2-(4-(1-Methyl-1H-pyrazol-4-yl)phenylamino)-6-propyl-5,6,7,8-tetrahydropyrido[4,3-d]pyrimidin-4-yl)(phenyl)amino)ethanol]
